Measurements taken from patent US20110288154A1, “RNA Interference Mediated Inhibition of Epithelial Sodium Channel (ENaC) Gene Expression Using Short Interfering Nucleic Acid (siNA)” (MERCK & CO., INC., priority 2008, published 2011).
[invAb] = inverted abasic unit; m = 2'-O-methyl; r = 2'-OH (RNA); f = 2'-fluoro

Test system: ENaCα mRNA
Test: Screening of ENaCα siNAs in human A549 cells (quantitative RT-PCR)
Format: cell-based
Set-up: Percent Reduction of the ENaCα mRNA relative to a non-targeting control siNA (NTC): concentration or dose not given beside the values
Conditions: for Avg ENaCα Expression / Mean (level of ENaCα expression normalized to the level of GAPDH) / Percent Reduction of the ENaCα mRNA relative to a non-targeting control siNA (NTC) / Avg GAPDH Expression: human A549 cells, n = 3; for Avg ENaCα Expression: 25 nM siNA with Lipofectamine 2000, harvested 24 hours post-transfection; for Mean (level of ENaCα expression normalized to the level of GAPDH) / Percent Reduction of the ENaCα mRNA relative to a non-targeting control siNA (NTC) / Avg GAPDH Expression: 24 hours post-transfection; for Avg GAPDH Expression: housekeeping gene used for normalisation
Protocol: siNA constructs (Table 1b) may be tested for efficacy in reducing ENaC RNA expression in, for example, A549 human lung carcinoma cells. A549 (human; ATCC cat# CCL-185) cells were cultured at 37° C. in the presence of 5% CO2 and grown in Ham's F12K medium with 2 mM L-glutamine adjusted to contain 1.5 g/L sodium bicarbonate and supplemented with fetal bovine serum at a final concentration of 10% and 100 U/mL penicillin. The A549 cells were plated approximately 24 hours before transfection in 96-well plates at 7,500 cells/well, 100 μl/well. After 24 hours complexes containing siNA and Lipofectamine 2000 (Invitrogen) were created as follows: a solution of Lipofectamine 2000 in OPTI-MEM was prepared containing Lipofectamine 2000 at a final concentration of 14 μg/ml. In parallel, solutions of the siNAs were prepared in OPTI-MEM at a final concentration of 150 nM. After both solutions were incubated at 20° C. for 20 minutes an equal volume of the siNA solutions and the Lipofectamine 2000 solution were added together for each of the siNAs. The resultant solution has the siNAs at a final concentration of 75 nM and Lipofectamine 2000 at a final concentration of 7 μg/ml. This solution was incubated at 20° C. for 20 minutes. After incubation 50 μl of the solution were added to each of the wells (in triplicate). The final concentration of siNA in each well was 25 nM and the final concentration of Lipofectamine 2000 in each well was 2.33 μg/ml. […] Dose response curves were determined in a similar manner with each concentration being done in triplicate and maintaining a constant amount of Lipofectamine 2000 in each transfection.
RNA was extracted from 96-well plates using the Invitek Invisorb RNA Cell HTS 96 Kit/C (Cat# 70619000) with a slightly modified protocol. The details of the protocol for isolating RNA from each plate are described as follows:
1) Aspirate media with rake 2) Add 150 ul/well Lysis buffer 3) Place on plate shaker for 1 minute 4) Place DNA binding plate on top of 0.5 ml collection plate 5) Pipette 190 ul up and down twice and add to DNA binding plate 6) Cover plate 7) Centrifuge plates 4 minutes at 4000 RPM 8) Discard DNA binding plate 9) Place the RNA binding plate on top of 2 ml collection plate 10) Add 150 ul/well of Binding Buffer R to 0.5 ml collection plate 11) Move contents of 0.5 ml collection plate to RNA binding plate 12) Let incubate for 1 minute 13) Centrifuge plates 4 minutes at 4000 RPM 14) Add 600 ul/well of Wash Buffer R1 to RNA binding plate 15) Centrifuge plates 4 minutes at 4000 RPM 16) Dump wash buffer from 2 ml collection plate 17) Add 400 ul/well of Wash Buffer R2 to RNA binding plate 18) Centrifuge plates 4 minutes at 4000 RPM 19) Add 400 ul/well of Wash Buffer R2 to RNA binding plate 20) Centrifuge plates 10 minutes at 4000 RPM 21) Dump wash buffer from 2 ml collection plate 22) Centrifuge plates 3 minutes at 4000 RPM 23) Discard 2 ml collection plate and place RNA binding plate on to microtiter plate 24) Add 100 ul/well of elution buffer to RNA binding plate 25) Incubate for 2 minutes 26) Seal plate 27) Centrifuge plates 3 minutes at 4000 RPM 28) Discard RNA binding plate 29) Cover microtiter plate for storage in −80 freezer
A series of probes and primers were used to detect the various mRNA transcripts of the genes of ENaCa and GAPDH in mouse, rat, and human cell lines. The assays were performed on an ABI 7500 instrument, according to the manufacturer's instructions. Within each experiment, the baseline was set in the exponential phase of the amplification curve, and based on the intersection point of the baselines with the amplification curve, a Ct value was assigned by the instrument. This Ct value was then assigned a QTY value based on the Standard Curve. The standard curve in the various experiments herein used 1 ng to 300 ng of RNA extracted from the same cell line used for the experimental transfections. […]

Substance | Avg ENaCα Expression | Mean (level of ENaCα expression normalized to the level of GAPDH) | Percent Reduction of the ENaCα mRNA relative to a non-targeting control siNA (NTC) [%] | Avg GAPDH Expression | IC50 (human cell line, dose response, read-out: Human IC50 (potency of ENaCα mRNA knockdown)) [pM] | Human % KD (efficacy of ENaCα mRNA knockdown) (human cell line, summary)
B GccAGuGGAGccuGuGGuu TTB / AACcAcAGGcuccAcuGGcUU (sense GCCAGUGGAGCCUGUGGUUTT; antisense AACCACAGGCUCCACUGGCUU; siRNA; sense: DNA at AGT, 2'-fluoro at CU, [invAb] at 5' end, 3' end, backbone not given here; antisense: sugars from the 5' end rrrfmfmmmffffmffmmfmm, backbone not given here) [Site 1757] | 66.53 | 0.66 | 0.0 | 101.11 | – | –
B cuGuGcAAccAGAAcAAAu TTB / AUUuGuucuGGuuGcAcAGUU (chain 1 CUGUGCAACCAGAACAAAUTT; chain 2 AUUUGUUCUGGUUGCACAGUU; siRNA; chain 1: DNA at AGT, 2'-fluoro at CU, [invAb] at 5' end, 3' end, backbone not given here; chain 2: sugars from the 5' end rrrfmffffmmffmfmfmmmm, backbone not given here) [Site 781] | 61.44 | 0.97 | 37.7 | 66.47 | – | –
B AGccAGuGGAGccuGuGGu TTB / ACCAcAGGcuccAcuGGcuUU (sense AGCCAGUGGAGCCUGUGGUTT; antisense ACCACAGGCUCCACUGGCUUU; siRNA; sense: DNA at AGT, 2'-fluoro at CU, [invAb] at 5' end, 3' end, backbone not given here; antisense: sugars from the 5' end rrrmfmmmffffmffmmffmm, backbone not given here) [Site 1756] | 73.20 | 0.71 | −8.2 | 102.64 | – | –
B GccAuccGccuGGuGuGcu TTB / AGCAcAccAGGcGGAuGGcUU (sense GCCAUCCGCCUGGUGUGCUTT; antisense AGCACACCAGGCGGAUGGCUU; siRNA; sense: DNA at AGT, 2'-fluoro at CU, [invAb] at 5' end, 3' end, backbone not given here; antisense: sugars from the 5' end rrrmfmffmmmfmmrfmmfmm, backbone not given here) [Site 310] | 68.10 | 1.57 | −1.0 | 45.78 | – | –
B uuAuGGAuGAuGGuGGcuu TTB / AAGccAccAucAuccAuAAUU (sense UUAUGGAUGAUGGUGGCUUTT; antisense AAGCCACCAUCAUCCAUAAUU; siRNA; B caps on sense ends, letter-case modifications not given here, further chemistry not given here) [Site 1181] | 36.75 | 0.55 | 64.7 | 70.22 | 400 | 65-80%
B uccuGuccAAccuGGGcAG TTB / CUGcccAGGuuGGAcAGGAUU (sense UCCUGUCCAACCUGGGCAGTT; antisense CUGCCCAGGUUGGACAGGAUU; siRNA; sense: DNA at AGT, 2'-fluoro at CU, [invAb] at 5' end, 3' end, backbone not given here; antisense: sugars from the 5' end rrrfffmmmffmmmfmmmmmm, backbone not given here) [Site 1739] | 75.77 | 0.75 | −13.8 | 100.60 | – | –
B cAcuccuGcuuccAGGAGA TTB / UCUccuGGAAGcAGGAGuGUU (sense CACUCCUGCUUCCAGGAGATT; antisense UCUCCUGGAAGCAGGAGUGUU; siRNA; sense: DNA at AGT, 2'-fluoro at CU, [invAb] at 5' end, 3' end, backbone not given here; antisense: sugars from the 5' end rrrfffmmmmmfmmmmmfmmm, backbone not given here) [Site 1351] | 68.14 | 1.12 | 28.2 | 64.22 | – | –
B cAGAGcAGAAuGAcuucAu TTB / AUGAAGucAuucuGcucuGUU (sense CAGAGCAGAAUGACUUCAUTT; antisense AUGAAGUCAUUCUGCUCUGUU; siRNA; sense: DNA at AGT, 2'-fluoro at CU, [invAb] at 5' end, 3' end, backbone not given here; antisense: sugars from the 5' end rrrmmmffmffffmffffmmm, backbone not given here) [Site 1100] | 66.11 | 1.14 | 26.8 | 64.16 | – | –
B cGcAuGAAGAcGGccuucu TTB / AGAAGGccGucuucAuGcGUU (chain 1 CGCAUGAAGACGGCCUUCUTT; chain 2 AGAAGGCCGUCUUCAUGCGUU; siRNA; chain 1: DNA at AGT, 2'-fluoro at CU, [invAb] at 5' end, 3' end, backbone not given here; chain 2: sugars from the 5' end rrrmmmffmfffffmfmfmmm, backbone not given here) [Site 340] | 84.94 | 1.40 | 9.9 | 63.09 | – | –
B cAcAAccGcAuGAAGAcGG TTB / CCGucuucAuGcGGuuGuGUU (chain 1 CACAACCGCAUGAAGACGGTT; chain 2 CCGUCUUCAUGCGGUUGUGUU; siRNA; chain 1: DNA at AGT, 2'-fluoro at CU, [invAb] at 5' end, 3' end, backbone not given here; chain 2: sugars from the 5' end rrrfffffmfmfmmffmfmmm, backbone not given here) [Site 334] | 58.30 | 1.49 | 4.5 | 42.86 | – | –
